Measured values as given in US20140357487A1, “PLANTS HAVING INCREASED TOLERANCE TO HERBICIDES” (BASF SE, priority 2011, published 2014).

Experiments:
[1] = test system: Avena HPPD; test: HPPD activity assay, Avena HPPD; assay type: biochemical, Avena sativa; settings: normalized on Arabidopsis wild-type HPPD
Procedure: (§1) HPPD produces homogentisic acid and CO2 from 4-hydroxyphenylpyruvate (4-HPP) and O2. The activity assay for HPPD is based on the analysis of homogentisic acid by reversed phase HPLC.
(§2) The assay mixture can contain 150 mM potassium phosphate buffer pH 7.0, 50 mM L-ascorbic acid, 1 μM FeSO4 and 7 μg of purified enzyme in a total volume of 1 ml.
(§3) Inhibitors are dissolved in DMSO (dimethylsulfoxide) to a concentration of 20 mM or 0.5 mM, respectively. From this stock solution serial five-fold dilutions are prepared in DMSO, which are used in the assay. The respective inhibitor solution accounts for 1% of the assay volume. Thus, final inhibitor concentrations range from 200 μM to 2.5 nM or from 5 μM to 63 pM, respectively. After a preincubation of 30 min the reaction is started by adding 4-HPP to a final concentration of 0.1 mM. The reaction is allowed to proceed for 120 min at room temperature. The reaction is stopped by addition of 100 μl of 4.5 M phosphoric acid.
(§4) Activities are normalized by setting the uninhibited enzyme activity to 100%. IC50 values are calculated using non-linear regression.
(§5) The assay mixture can contain 150 mM potassium phosphate buffer pH 7.0, 50 mM L-ascorbic acid, 100 μM Catalase (Sigma-Aldrich), 1 μM FeSO4 and 0.2 units of purified HPPD enzyme in a total volume of 505 μl. 1 unit is defined as the amount of enzyme that is required to produce 1 nmol of HGA per minute at 20° C.
(§6) Inhibitors are dissolved in DMSO (dimethylsulfoxide) to a concentration of 0.5 mM. From this stock solution serial five-fold dilutions are prepared in DMSO, which are used in the assay. The respective inhibitor solution accounts for 1% of the assay volume. Thus, final inhibitor concentrations range from 5 μM to 320 pM, respectively. Activities are normalized by setting the uninhibited enzyme activity to 100%. IC50 values are calculated using non-linear regression.
Using methods which are described in the above examples or well known in the art, purified, recombinant wildtype HPPD enzymes are characterized with respect to their kinetic properties and sensitivity towards HPPD inhibiting herbicides. Apparent michaelis constants (Km) and maximal reaction velocities (Vmax) are calculated by non-linear regression with the software GraphPad Prism 5 (GraphPad Software, La Jolla, USA) using a substrate inhibition model. […] Weighted means (by standard error) of Km and […] values are calculated from at least three independent experiments. […]
(§7) Field performance of the HPPD enzyme, which is used as a herbicide tolerance trait, may depend not only on its lack of sensitivity towards HPPD inhibiting herbicides but also on its activity. To assess the potential performance of a herbicide tolerance trait a tolerance index (TI) is calculated using the following formula: […]

[2] = molecular target: T1, Hordeum HPPD variant L320H (Hordeum vulgare, UniProt O48604, A164G/L320H/R146V/R147D/R148G); test: HPPD activity assay, Hordeum HPPD mutant L320H; assay type: biochemical; settings: normalized on Hordeum wild-type HPPD
T1 construct: His (N); made in house; host or cells: E. coli BL21 (DE3)
T1 sequence (O48604 whole entry R146V/R147D/R148G/A164G/L320H): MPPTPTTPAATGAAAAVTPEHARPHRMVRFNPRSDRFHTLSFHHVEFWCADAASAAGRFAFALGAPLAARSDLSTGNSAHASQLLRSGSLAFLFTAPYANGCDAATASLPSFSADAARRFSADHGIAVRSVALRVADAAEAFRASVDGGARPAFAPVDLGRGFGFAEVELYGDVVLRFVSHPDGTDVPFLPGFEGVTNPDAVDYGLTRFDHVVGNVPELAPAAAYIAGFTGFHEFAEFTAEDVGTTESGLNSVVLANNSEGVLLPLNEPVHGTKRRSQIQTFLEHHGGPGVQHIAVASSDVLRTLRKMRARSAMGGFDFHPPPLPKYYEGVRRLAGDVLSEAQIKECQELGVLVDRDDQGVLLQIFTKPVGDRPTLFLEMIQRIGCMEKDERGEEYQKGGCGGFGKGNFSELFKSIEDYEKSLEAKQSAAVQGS
Procedure: as §1, §2
as §3, with “Thus, final inhibitor concentrations range from 200 μM to 2.5 nM or from 5 μM to 63 pM, respectively.” left out
as §4, §5
Inhibitors are dissolved in DMSO (dimethylsulfoxide) to a concentration of 0.5 mM. […] IC50 values are calculated using non-linear regression.
Purified, mutant HPPD enzymes are obtained by the methods described above. […] Apparent michaelis constants (Km) and maximal reaction velocities (Vmax) are calculated by non-linear regression with the software GraphPad Prism 5 (GraphPad Software, La Jolla, USA) using a substrate inhibition model.
as §7, with “of the optimized HPPD enzyme,” for “of the HPPD enzyme,”, “herbicide tolerance trait may depend” for “herbicide tolerance trait, may depend”

[3] = molecular target: T2, Hordeum HPPD variant L353M, P321R, L320N (Hordeum vulgare, UniProt O48604, L320N/L353M/P321R); test: HPPD activity assay, Hordeum HPPD mutant L353M, P321R, L320N; assay type: biochemical; settings: normalized on Hordeum wild-type HPPD
T2 construct: His (N); made in house; host or cells: E. coli BL21 (DE3)
T2 sequence (O48604 whole entry R146V/R147D/R148G/A164G/L320N/P321R/L353M): as the sequence (O48604 whole entry R146V/R147D/R148G/A164G/L320H) above, with H320N, P321R, L353M counted along it
Procedure: as §1, §2
as §3, with “Thus, final inhibitor concentrations range from 200 μM to 2.5 nM or from 5 μM to 63 pM, respectively.” left out
as §4, §5
as §6, with “Thus, final inhibitor concentrations range from 5 μM to 320 pM, respectively.” left out
(§8) Purified, mutant HPPD enzymes are obtained by the methods described above. Dose response and kinetic measurements are carried out using the described HPPD activity assay. Apparent michaelis constants (Km) and maximal reaction velocities (Vmax) are calculated by non-linear regression with the software GraphPad Prism 5 (GraphPad Software, La Jolla, USA) using a substrate inhibition model.
as §7, with “of the optimized HPPD enzyme,” for “of the HPPD enzyme,”, “herbicide tolerance trait may depend” for “herbicide tolerance trait, may depend”
(§9) Easy comparison and ranking of each trait is enabled by normalizing tolerance indexes on Arabidopsis or Hordeum wild-type HPPD.

[4] = molecular target: T3, Hordeum HPPD variant L334E (Hordeum vulgare, UniProt O48604, A164G/L334E/R146V/R147D/R148G); test: HPPD activity assay, Hordeum HPPD mutant L334E; assay type: biochemical; settings: normalized on Hordeum wild-type HPPD
T3 construct: His (N); made in house; host or cells: E. coli BL21 (DE3)
T3 sequence (O48604 whole entry R146V/R147D/R148G/A164G/L334E): as the sequence (O48604 whole entry R146V/R147D/R148G/A164G/L320H) above, with H320L, L334E counted along it
Procedure: as §1, §2
as §3, with “Thus, final inhibitor concentrations range from 200 μM to 2.5 nM or from 5 μM to 63 pM, respectively.” left out
as §4, §5
as §6, with “Thus, final inhibitor concentrations range from 5 μM to 320 pM, respectively.” left out
as §8
as §7, with “of the optimized HPPD enzyme,” for “of the HPPD enzyme,”, “herbicide tolerance trait may depend” for “herbicide tolerance trait, may depend”
as §9

Structure (SMILES) | Normalized tolerance index TI [1] | Normalized tolerance index TI [2] | Normalized tolerance index TI [3] | Normalized tolerance index TI [4]
COCCOCc1c(Cl)ccc(C2=C(O)c3ncccc3C(C)(C)S2(=O)=O)c1Cl [Inhibitor 3, 7-[2,4-dichloro-3-(2-methoxyethoxymethyl)phenyl]-5,5-dimethyl-6,6-dioxo-thiopyrano[4,3-b]pyridin-8-ol] | 0.1 | 7.4 | 1.9 | 1.5
CC1=NOC(c2c(Cl)ccc(C3=C(O)c4ncccc4C(C)(C)S3(=O)=O)c2Cl)C1 (stereo not drawn) [Inhibitor 1, 7-[2,4-dichloro-3-(3-methyl-4,5-dihydroisoxazol-5-yl)phenyl]-5,5-dimethyl-6,6-dioxo-thiopyrano[4,3-b]pyridin-8-ol] | 4.7 | 8.5 | 2.1 | 1.5
CC1(C)c2cccnc2C(O)=C(c2ccc(Cl)nc2Cl)S1(=O)=O [Inhibitor 2, 7-(2,6-dichloro-3-pyridyl)-5,5-dimethyl-6,6-dioxo-thiopyrano[4,3-b]pyridin-8-ol] | 2.8 | 2.7 | 1.4 | 1.4
